Biological target: T1, N-terminally GST-tagged human full length recombinant Mps-1 kinase (Homo sapiens, UniProt P33981)
T1 construct: N-terminally GST-tagged human full length recombinant Mps-1 kinase; purchased Invitrogen, Karslruhe, Germany PV4071
T1 sequence (P33981 1-857): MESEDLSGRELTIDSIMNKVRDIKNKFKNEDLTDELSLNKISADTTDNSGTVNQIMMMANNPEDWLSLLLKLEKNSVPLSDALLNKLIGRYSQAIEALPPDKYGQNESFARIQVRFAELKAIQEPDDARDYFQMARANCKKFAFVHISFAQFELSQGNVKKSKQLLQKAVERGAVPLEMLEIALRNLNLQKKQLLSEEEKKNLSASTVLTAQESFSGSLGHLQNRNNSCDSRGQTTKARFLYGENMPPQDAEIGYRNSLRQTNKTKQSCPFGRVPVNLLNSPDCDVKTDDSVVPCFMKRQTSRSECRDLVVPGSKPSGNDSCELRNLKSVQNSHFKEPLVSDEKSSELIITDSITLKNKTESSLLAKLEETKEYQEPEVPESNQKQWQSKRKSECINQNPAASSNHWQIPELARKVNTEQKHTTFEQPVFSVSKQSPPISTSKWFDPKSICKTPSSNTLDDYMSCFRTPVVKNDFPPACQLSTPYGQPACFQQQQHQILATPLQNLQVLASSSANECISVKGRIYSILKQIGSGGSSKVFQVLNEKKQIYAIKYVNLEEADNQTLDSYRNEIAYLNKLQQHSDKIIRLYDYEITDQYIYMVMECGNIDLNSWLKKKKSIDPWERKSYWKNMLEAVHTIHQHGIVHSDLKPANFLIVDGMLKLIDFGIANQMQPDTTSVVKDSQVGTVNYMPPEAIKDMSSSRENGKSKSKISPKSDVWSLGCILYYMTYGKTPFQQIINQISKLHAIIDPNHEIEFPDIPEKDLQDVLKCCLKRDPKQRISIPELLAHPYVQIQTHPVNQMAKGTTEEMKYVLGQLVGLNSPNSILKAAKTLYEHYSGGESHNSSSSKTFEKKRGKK
Experiment: Mps-1 kinase assay (TR-FRET)
Assay type: biochemical
Conditions: Mps1 IC50 [nM], 10 μM ATP, 1 μM peptide substrate, 60 min at 22° C.
In short: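 Compounds were tested against recombinant full-length Mps-1 bearing an N-terminal GST tag, about 1 nM final, with a biotinylated amide-capped peptide as substrate. Detection reagents were then bound for 1 h at 22° C and the product read by TR-FRET.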

SMILES	IC50
CNC(=O)c1ccc(-c2cnc3c(NCCC(F)(F)F)cc(Oc4cccc(F)c4)nn23)cc1C [Example 551, 4-{6-(3-fluorophenoxy)-8-[(3,3,3-trifluoropropyl)amino]imidazo[1,2-b]pyridazin-3-yl}-N,2-dimethylbenzamide]	0.2 nM
Cc1cccc(-c2cc(NCC(C)C)c3ncc(-c4ccc(C(=O)NC5CC5)cc4)n3n2)c1C [Example 106, N-cyclopropyl-4-{6-(2,3-dimethylphenyl)-8-[(2-methylpropyl)amino]imidazo[1,2-b]pyridazin-3-yl}benzamide]	8.9 nM
CC(=O)NCCNc1cc(Oc2cccc(F)c2)nn2c(-c3ccc(C(=O)NC4CC4)c(C)c3)cnc12 [Example 504, 4-[8-{[2-(acetylamino)ethyl]amino}-6-(3-fluorophenoxy)imidazo[1,2-b]pyridazin-3-yl]-N-cyclopropyl-2-methyl-benzamide]	0.2 nM
Cc1cc(-c2cnc3c(NCCC(F)(F)F)cc(Sc4cccc(F)c4F)nn23)ccc1C(=O)NC1CC1 [Example 252, N-cyclopropyl-4-{6-[(2,3-difluorophenyl)sulfanyl]-8-[(3,3,3-trifluoropropyl)amino]imidazo[1,2-b]pyridazin-3-yl}-2-methylbenzamide]	0.2 nM
Cc1cc(-c2cnc3c(NCC4CNC4)cc(-c4ccccc4CO)nn23)ccc1C(=O)NC1CC1 [Example 338, 4-{8-[(azetidin-3-ylmethyl)amino]-6-[2-(hydroxymethyl)phenyl]imidazo[1,2-b]pyridazin-3-yl}-N-cyclo-propyl-2-methylbenzamide]	83.9 nM
CC(C)CNc1cc(-c2cnc3ccccc3c2)nn2c(-c3ccc(C(=O)NC4CC4)cc3)cnc12 [Example 108, N-cyclopropyl-4-{8-[(2-methylpropyl)amino]-6-(quinolin-3-yl)imidazo[1,2-b]pyridazin-3-yl} benzamide]	7 nM
Cc1cc(-c2cnc3c(NCC(C)(C)O)cc(Sc4ccc(F)cc4)nn23)ccc1C(=O)NC1CC1 [Example 71, N-cyclopropyl-4-{6-[(4-fluorophenyl)sulfanyl]-8-[(2-hydroxy-2-methylpropyl)amino]imidazo[1,2-b]pyridazin-3-yl}-2-methylbenzamide]	0.8 nM
Cc1cc(-c2cnc3c(NCC(C)(C)O)cc(-c4ccc(F)cc4CO)nn23)ccc1C(=O)NC1CC1 [Example 299, N-cyclopropyl-4-{6-[4-fluoro-2-(hydroxymethyl)phenyl]-8-[(2-hydroxy-2-methylpropyl)amino]imidazo[1,2-b]pyridazin-3-yl}-2-methylbenzamide]	6.9 nM
Cc1cc(Oc2cc(NCC(C)(C)O)c3ncc(-c4ccc(C(=O)NC5CC5)c(C)c4)n3n2)n[nH]1 [Example 415, N-cyclopropyl-4-{8-[(2-hydroxy-2-methylpropyl)amino]-6-[(5-methyl-1H-pyrazol-3-yl)oxy]imidazo[1,2-b]pyridazin-3-yl}-2-methylbenzamide]	8.2 nM
Cc1cc(-c2cnc3c(NCCC(F)(F)F)cc(Sc4nncn4C)nn23)ccc1C(=O)NC1CC1 [Example 419, N-cyclopropyl-2-methyl-4-{6-[(4-methyl-4H-1,2,4-triazol-3-yl)sulfanyl]-8-[(3,3,3-trifluoropropyl)amino]imidazo[1,2-b]pyridazin-3-yl}benzamide]	3.5 nM
COc1ccccc1Nc1cc(NCCC(F)(F)F)c2ncc(-c3ccc(C(=O)NC4CC4)c(C)c3)n2n1 [Example 388, N-cyclopropyl-4-{6-[(2-methoxyphenyl)amino]-8-[(3,3,3-trifluoropropyl)amino]imidazo[1,2-b]pyridazin-3-yl}-2-methylbenzamide]	0.4 nM
CNC(=O)c1ccc(-c2cnc3c(NCCC(F)(F)F)cc(Oc4ccc(OC)cc4F)nn23)cc1C [Example 576, 4-{6-(2-fluoro-4-methoxyphenoxy)-8-[(3,3,3-trifluoropropyl)a-mino]imidazo[1,2-b]pyridazin-3-yl}-N,2-dimethylbenzamide]	< 1 nM
Cc1cc(-c2cnc3c(NCCC(F)(F)F)cc(Oc4cccc(F)c4)nn23)ccc1C(=O)NCCC(F)(F)F [Example 554, 4-{6-(3-fluorophenoxy)-8-[(3,3,3-trifluoropropyl)amino]imidazo[1,2-b]pyridazin-3-yl}-2-methyl-N-(3,3,3-trifluoropropyl)benzamide]	1.6 nM
C=Cc1cc(NCC(C)(C)O)c2ncc(-c3ccc(C(=O)NC4CC4)c(C)c3)n2n1 [Example 40, N-cyclopropyl-4-{8-[(2-hydroxy-2-methylpropyl)amino]-6-vinylimidazo[1,2-b]pyridazin-3-yl}-2-methylbenzamide]	111 nM
Cc1ccc(F)cc1Oc1cc(NCCN2CCOCC2)c2ncc(-c3ccc(C(=O)NC4CC4)c(C)c3)n2n1 [Example 537, N-cyclopropyl-4-[6-(5-fluoro-2-methylphenoxy)-8-{[2-(morpholin-4-yl)ethyl]amino}imidazo[1,2-b]pyridazin-3-yl]-2-methylbenzamide]	0.2 nM
Cc1cc(-c2cnc3c(NCC(O)C(F)(F)F)cc(Sc4cccc(F)c4)nn23)ccc1C(=O)NC1CC1 (racemic) [Example 216, (RS)—N-cyclopropyl-4-{6-[(3-fluorophenyl)sulfanyl]-8-[(3,3,3-trifluoro-2-hydroxypropyl)amino]imidazo[1,2-b]pyridazin-3-yl}-2-methylbenzamide]	< 1 nM
Cc1cc(-c2cnc3c(NCC(C)(C)O)cc(Oc4ccc(N5CCN(C(=O)OC(C)(C)C)CC5)cc4)nn23)ccc1C(=O)NC1CC1 [Example 322, tert-butyl 4-[4-({3-[4-(cyclopropyl-carbamoyl)-3-methyl-phenyl]-8-[(2-hydroxy-2-methylpropyl)amino]imidazo[1,2-b]pyridazin-6-yl}oxy)phenyl]piperazine-1-carboxylate]	70.6 nM
Cc1cc(-c2cnc3c(NCCCS(=O)(=O)O)cc(Oc4cccc(F)c4)nn23)ccc1C(=O)NC1CC1 [Example 547, 3-({3-[4-(cyclopropylcarbamoyl)-3-methylphenyl]-6-(3-fluorophenoxy)imidazo[1,2-b]pyridazin-8-yl}amino)propane-1-sulfonic acid]	0.2 nM
COc1ccccc1-c1cc(NCC(C)C)c2ncc(-c3ccc(C(=O)NC4CC4)cc3)n2n1 [Example 129, N-cyclopropyl-4-{6-(2-methoxyphenyl)-8-[(2-methylpropyl)amino]imidazo[1,2-b]pyridazin-3-yl}benamide]	3.3 nM
Cc1cc(-c2cnc3c(NCC(C)(C)O)cc(Nc4cccc(C(C)C)c4)nn23)ccc1C(=O)NC1CC1 [Example 385, N-cyclopropyl-4-{8-[(2-hydroxy-2-methylpropyl)amino]-6-[(3-isopropylphenyl)amino]imidazo[1,2-b]pyridazin-3-yl}-2-methylbenzamide]	0.9 nM
Cc1cc(-c2cnc3c(NCCC(F)(F)F)cc(N4CCCc5cccc(O)c54)nn23)ccc1C(=O)NC1CC1 [Example 467, N-cyclopropyl-4-{6-(8-hydroxy-3,4-dihydro-quinolin-1(2H)-yl)-8-[(3,3,3-trifluoropropyl)amino]imidazo[1,2-b]pyridazin-3-yl}-2-methyl-benzamide]	1.6 nM
Cc1cc(-c2cnc3c(NCCC(F)(F)F)cc(Sc4ccccc4)nn23)ccc1C(=S)NC1CC1 [Example 84, N-cyclopropyl-2-methyl-4-{6-(phenylsulfanyl)-8-[(3,3,3-trifluoropropyl)amino]imidazo[1,2-b]pyridazin-3-yl}benzenecarbothioamide]	0.3 nM

— patent US9255100B2 (BAYER INTELLECTUAL PROPERTY GMBH, priority 2010, dated 2016)
